Results taken from US8829014B2, “Thiazole and thiophene analogues, and their use in treating autoimmune diseases and cancers” (Board of Supervisors of Louisiana State University and …, priority 2006, dated 2014).
Marks after values point to notes of the source that are not given here.

Key:
carageenan-induced edema = assay: Carrageenan-induced rat paw edema test (anti-inflammatory activity); assay type: in vivo, Sprague-Dawley rats; conditions: Rattus norvegicus, po, 3 h, rat paw edema, 50 mg/kg, reading 3 hours after carrageenan; [(Control−Test)/Control]×100%; read-out: % Protection P
Outline: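 Edema was raised by sub-plantar injection of 1% carrageenan into the right hind paw, 1 h after dosing 18 h-fasted male/female Sprague-Dawley rats (150-250 g) with 50 mg/kg p.o. in 0.1% CMC. Swelling was measured by displacement 3 h later and expressed as % protection against saline control.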

eIF4E = eIF4E inhibitor screen: luciferase under FGF 5′UTR in FaDu cells (highly cap-dependent translation); assay type: cell-based; conditions: 1.0 μM, 48 h, FaDu UTR cells, normalized to DMSO (FIG. 8)
Description: Since highly cap-dependent translation is associated with synthesis of proteins involved in cancer, a compound that inhibits this pathway may be used as an anti-cancer agent. The assay was developed by cloning the highly structured 5′ UTR of FGF, which requires high levels of eIF4E before protein synthesis can initiate, into the proper orientation of the reporter gene luciferase, and then stably transfecting the modified luciferase gene into the cell line FaDu that is known to have high levels of eIF4E. The activity of luciferase is then monitored in the presence and absence of the tested compound.
Generation of Stable Cell Lines: The pMS110 plasmid (pGL3-control plasmid from Promega which contains a neo selectable marker) was used to generate pMS110-5′UTR by cloning the 5′ UTR of FGF just upstream of the luciferase AUG start codon. FaDu cells, a head and neck cancer cell line, were transfected using Lipofectamine2000 (Invitrogen). Twenty-four hours after transfection G418 was added at 500 μg/ml. Cells were maintained in G418 for 14 days, and then individual colonies were transferred to a 96-well plate for propagation. Individual clones were analyzed for luciferase expression by plating 10^4 cells per well in a 96-well plate for 24 hours before lysing the cells and analyzing for luciferase activity in a Victor III (Perkin Elmer) or Lucy2 (Rosys Anthos). FaDu9000 and FaDuUTR were the clones that expressed the highest level of active luciferase following transfection of pMS110 and pMS110-5′UTR, respectively.
Analysis of Rapamycin Responsiveness: Cells of FaDu9000 and FaDuUTR were plated at 1×10^4 cells/well in a 96-well dish. Twenty-four hours after plating, 0.1% DMSO (vehicle control) or 10 nM rapamycin were added to each well, and the cells were maintained for an additional 24 or 48 hours. The cells were then lysed and luciferase activity was determined using BriteGlo (Promega) as per manufacturer's instruction and recorded using the Victor III. Following subtraction of background activity, the mean value of quadruplicate samples for a given experiment was determined, and the treated cells were normalized to the control. At least four separate experiments were conducted, and the mean and standard error were calculated. To determine if rapamycin affected cell viability, an MTS assay (Cell Proliferation One Solution, Promega) was carried out on each population at 48 hours in two separate experiments.
The FaDu cell line stably transfected with FGF 5′UTR was used to screen thirty-nine representative compounds, each at a concentration of 1.0 μM. Additional cells were treated with vehicle, 0.3% DMSO. Cells were plated for twenty-four hours in a 96-well plate. Each compound was then added to triplicate wells, and the cells were incubated for forty-eight hours before measuring luciferase activity as above. The mean luciferase activity was measured using Promega's Brite-Glo kit, and the mean for each sample was normalized to DMSO. The experiment was then repeated, and the average and standard deviation of the two experiments were determined (FIG. 8).

NF-κB = assay: TNF-α-induced NF-κB-dependent luciferase expression in HEK cells; assay type: cell-based; design: NF-κB % inhibition: concentration or dose not given beside the values; conditions: for NF-κB % inhibition: TNF-α-induced, compound added 1 h before inducer, luciferase 24 h later, normalized to DMSO vehicle
AP-1 = assay: PMA-induced AP-1 luciferase expression in HEK cells; assay type: cell-based; conditions: for AP-1 % inhibition: PMA-induced, compound added 1 h before inducer, luciferase 24 h later, normalized to DMSO vehicle
[1] = system: vascular smooth muscle cells (VSMC); assay: LDH release cytotoxicity in VSMC; assay type: cell-based; conditions: VSMC, 10 μM, 48 h, relative to vehicle
Experimental: (§1) Additional compounds have also been tested for their ability to inhibit both TNF-α-induced NF-κB—expression and PMA-induced AP-1 expression. In both tests, the compound was added for 1 h, then the appropriate inducer was added, and luciferase activity was monitored 24 h later. Values were then normalized to the vehicle control, DMSO. Following the initial luciferase screens, studies were conducted to assess the cytotoxicity of the compounds in normal cells such as VSMC, HUVEC, or HPT cells. Human umbilical vein endothelial cells (HUVEC) represent the normal endothelium, vascular smooth muscle cells (VSMC) were represented by cells from the adult rat aorta, and human proximal tubule (HPT) cells represent the normal proximal tubule in vivo. These cells were grown to near confluency in multi-well plates, and were then treated for 48 h with either vehicle (0.1% DMSO) or 10 μM of each drug candidate. Following treatment, the media from the VSMC and HUVEC incubations were removed, and the amount of lactate dehydrogenase (LDH) released into the medium was determined with a commercial kit. LDH is normally confined to the cytosol, and its release represents “leakiness” of the plasma membrane. LDH activity was expressed as % increase over vehicle-treated cells. In another assay of viability, the treated VSMC and HUVEC were removed by trypsinization and treated with trypan blue, a dye that is taken up only by dead cells. The number of both live and dead cells was counted using an automated cell viability analyzer. The % decrease in numbers of viable cells was determined. Toxicity in the treated HPT cells was determined by the ethidium homodimer (EthHD) uptake assay. EthHD is a fluorescent dye that is excluded from live cells, but is taken up by cells that have lost permeability barriers. Inside the cell, EthHD produces a strong fluorescent signal, which is proportional to the number of dead cells. Results were expressed as a % increase in cell death over vehicle-treated cells. The lead compounds were also tested in two pairs of cell lines from either the skin or prostate, one tumorigenic and one non-tumorigenic, to test for any differences in toxicity or heightened sensitivity in the tumorigenic lines. The cells were treated for 48 h with vehicle (0.1% DMSO) or 10 μM of each drug candidate. Following treatment, the viability of the cells was determined by the MTT assay. In this assay, the MTT dye is converted only in viable cells by intracellular enzymes to a colorimetric product that is quantitated by a microplate reader.
(§2) For the results in Table 13, cells were grown to near confluency in multi-well plates, then treated for 48 h with either vehicle (0.1% DMSO) or 10 μM of each drug candidate. Following treatment, the media from the VSMC and HUVEC incubations were removed, and the amount of lactate dehydrogenase (LDH) released into the medium was determined with a commercial kit and expressed as a % increase over vehicle-treated cells. HPT toxicity was determined by the ethidium homodimer (EthHD) uptake assay. Inside the cell, EthHD produces a strong fluorescent signal, which is proportional to the amount of cell death, expressed as a % increase in cell death over vehicle-treated cells. The lead compounds were also tested in two pairs of cell lines from the skin or prostate, one tumorigenic and one non-tumorigenic, to test for differing toxicity or heightened sensitivity in the tumorigenic lines. The cells were treated for 48 h with vehicle (0.1% DMSO) or 10 μM of each drug candidate, and the viability of the cells was determined by the MTT assay, expressed as a % decrease in viability compared to vehicle-treated cells. The in vivo inflammation model measured the % inhibition of rat paw edema induced by carageenan injection.

[2] = system: Human umbilical vein endothelial cells (HUVEC); assay: LDH release cytotoxicity in HUVEC; assay type: cell-based; conditions: HUVEC, 10 μM, 48 h, relative to vehicle
Experimental: as §1, §2

[3] = system: vascular smooth muscle cells (VSMC); assay: Trypan blue viability count in VSMC; assay type: cell-based; conditions: VSMC, 10 μM, 48 h, relative to vehicle
Experimental: as §1

[4] = system: Human umbilical vein endothelial cells (HUVEC); assay: Trypan blue viability count in HUVEC; assay type: cell-based; conditions: HUVEC, 10 μM, 48 h, relative to vehicle
Experimental: as §1

[5] = system: human proximal tubule (HPT) cells; assay: Ethidium homodimer (EthHD) uptake toxicity assay in HPT cells; assay type: cell-based; conditions: 10 μM, 48 h, relative to vehicle
Experimental: as §1, §2

[6] = system: cell lines from the skin, one tumorigenic and one non-tumorigenic; assay: MTT viability in skin cell line pair, tumorigenic and non-tumorigenic; assay type: cell-based
Experimental: as §1, §2

Compound	inhibition in vivo at 50 mg/kg (carageenan-induced edema) [%]	luciferase expression under the control of the FGF 5′UTR (eIF4E)	inhibition at 1 µM (NF-κB; Homo sapiens, HEK293, 1 uM, luciferase in HEK/NF-κB cells, as described in Example 398, read-out: NFkB inhibition @ 1 uM) [%]	inhibition at 1 µM (AP-1; AP1, 1 uM, luciferase in HEK/AP-1 cells, as described in Example 398) [%]	NF-κB % inhibition (NF-κB)	AP-1 % inhibition (AP-1)	LDH release % Increase VSMC [1]	LDH release % Increase HUVEC [2]	Viable Cells % Decrease VSMC [3]	Viable Cells % Decrease HUVEC [4]	Cell Death (EthHD) % Increase HPT [5]	Viability (MTT) % Decrease HaCaT [6] [%]	Viability (MTT) % Decrease SRB12-p9 [6]
O=C(c1sc(Nc2ccccc2)nc1-c1ccccc1)c1sc(Nc2ccccc2)nc1-c1ccccc1 [Example 126, Bis-(2-phenylamino-4-phenyl-thiazole-5-yl)-methanone]	64.5	increased luciferase expression	22.2	27.1									
Cc1nc(Nc2ccc(Cl)cc2)sc1-c1nc2ccccc2c(=O)n1-c1ccccc1Cl [PMCR120]					60** %	27%	11%	6%	13%	16%	17%	−4	85# %
COC(=O)Nc1nc(-c2ccccc2)c(-c2nc3ccccc3c(=O)n2-c2ccccc2Cl)s1 [PMCR122]					55** %	66** %	20%	37# %	45# %	32# %	210# %	6	11%
Cc1ccccc1-n1c(-c2cc(-c3ccncc3)c(N3CCOCC3)s2)nc2ccccc2c1=O [PMCR188]					53%	0%	148# %	160# %	92# %	60# %	250# %	0	0%
COc1ccccc1-n1c(-c2cc(-c3ccc(S(C)(=O)=O)cc3)c(N3CCOCC3)s2)nc2ccccc2c1=O [PMCR204]					55** %	33%	164# %	214# %	70# %	65# %	207# %	−8	12%
